This assay deals with K98450-129-R-PDC complex spheroid growth, percent test/control. In words: Anticancer human tumor K98450-129-R-PDC patient-derived colon adenocarcinoma cell line growth inhibition [RAS]. The settings on record: for viability, T/C: stronger effect = lower value. The essentials:
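Multi-cell-type spheroids: tumor cells plus HUVEC endothelial cells and mesenchymal stem cells. RAS-pathway inhibitors were combined with targeted agents, each dosed in half-log steps down from clinical Cmax, or from 10 microM when Cmax was unknown.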

Setting [1] is: curve of first compound, second compound 0.0316 µM.
Setting [2] is: curve of first compound, second compound 0.1 µM.
Setting [3] is: curve of first compound, second compound 0.316 µM.
[4] abbreviates: curve of first compound, second compound 1 µM.
The mark [5] stands for this setting: curve of first compound, second compound 3.16 µM.
[6] abbreviates: curve of first compound, second compound 10 µM.

“And” between values parts separate entries of the source, which are not always exact repeats. Equal entries are not always repeated.
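Also: spheroids exposed to agents for seven days before the viability readout.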
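For viability, T/C in this document: luminescence used as a proxy for viable cell amount.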

Regarding `C[C@@H](NC(=O)c1ncnc(N)c1Cl)c1ncc(C(=O)Nc2cc(C(F)(F)F)c(Cl)cn2)s1`, the viability, T/C reads like this: (compound 0.0316 µM) 110% [middle of 4 runs]; (compound 0.316 µM) 122% [middle of 4 runs]; (compound 1 µM) 126% [middle of 4 runs]; (compound 10 µM) 106% [middle of 4 runs]. Moreover, the IC50 (curve of compound) is > 10 µM.

For `CC(C)NCC(C(=O)N1CCN(c2ncnc3c2C(C)CC3O)CC1)c1ccc(Cl)cc1` (stereo unspecified), the viability, T/C (compound 0.0316 µM) was 103% [middle of 4 runs]; the viability, T/C (compound 0.1 µM) was 97.1% [middle of 4 runs]; the viability, T/C (compound 0.316 µM) was 104% (2×) and 111% and 88.1%; the viability, T/C (compound 1 µM) was 102% [middle of 4 runs]; the viability, T/C (compound 3.16 µM) is 104% [middle of 4 runs]; the viability, T/C (compound 10 µM) is 101% [middle of 4 runs]. Also, under “curve of compound”, the IC50 was > 10 µM.

As for `CC1(C)CCC(Nc2ncc(C(F)(F)F)c(-c3c[nH]c4c(P(C)(C)=O)c(C#N)ccc34)n2)CN1` (stereo unspecified) + C#Cc1c(F)ccc2cc(O)cc(-c3ncc4c(N5CC6CCC(C5)N6)nc(OCC56CCCN5CC(F)C6)nc4c3F)c12, the IC50 runs as follows: under setting [1], > 0.3 µM; under setting [2], > 0.3 µM; under setting [3], > 0.3 µM; under setting [4], > 0.3 µM; under setting [5], > 0.3 µM; under setting [6], > 0.3 µM. For the same compound, the viability, T/C runs as follows: (second compound 0.0316 µM, first compound 0.000949 µM) 102%; (second compound 0.0316 µM, first compound 0.003 µM) 103%; (second compound 0.0316 µM, first compound 0.00949 µM) 100%; (second compound 0.0316 µM, first compound 0.03 µM) 105%; (second compound 0.0316 µM, first compound 0.0949 µM) 88.5%; (second compound 0.0316 µM, first compound 0.3 µM) 58.6%. The viability, T/C was 107% (second compound 0.1 µM, first compound 0.000949 µM); 105% (second compound 0.1 µM, first compound 0.003 µM); 111% (second compound 0.1 µM, first compound 0.00949 µM); 100% (second compound 0.1 µM, first compound 0.03 µM); 89.3% (second compound 0.1 µM, first compound 0.0949 µM); 66.6% (second compound 0.1 µM, first compound 0.3 µM). The viability, T/C was 111% (second compound 0.316 µM, first compound 0.000949 µM); 105% (second compound 0.316 µM, first compound 0.003 µM); 99.8% (second compound 0.316 µM, first compound 0.00949 µM); 100% (second compound 0.316 µM, first compound 0.03 µM); 89.9% (second compound 0.316 µM, first compound 0.0949 µM); 69.7% (second compound 0.316 µM, first compound 0.3 µM). Also, the viability, T/C (second compound 1 µM, first compound 0.000949 µM) was 102%; the viability, T/C (second compound 1 µM, first compound 0.003 µM) is 97.8%; the viability, T/C (second compound 1 µM, first compound 0.00949 µM) is 99.3%; the viability, T/C (second compound 1 µM, first compound 0.03 µM) was 105%; the viability, T/C (second compound 1 µM, first compound 0.0949 µM) is 89.2%; the viability, T/C (second compound 1 µM, first compound 0.3 µM) is 64%. Also, the viability, T/C was 96.1% (second compound 3.16 µM, first compound 0.000949 µM); 95.3% (second compound 3.16 µM, first compound 0.003 µM); 95.1% (second compound 3.16 µM, first compound 0.00949 µM); 97.7% (second compound 3.16 µM, first compound 0.03 µM); 94.2% (second compound 3.16 µM, first compound 0.0949 µM); 66.7% (second compound 3.16 µM, first compound 0.3 µM). Besides, the viability, T/C reads like this: (second compound 10 µM, first compound 0.000949 µM) 89%; (second compound 10 µM, first compound 0.003 µM) 94.2%; (second compound 10 µM, first compound 0.00949 µM) 91.4%; (second compound 10 µM, first compound 0.03 µM) 98.4%; (second compound 10 µM, first compound 0.0949 µM) 85.9%; (second compound 10 µM, first compound 0.3 µM) 61.9%.

As to `NC1c2ccccc2OC12CCN(c1cnc3c(N4CCCc5ncccc54)n[nH]c3n1)CC2` (stereo unspecified) + C#Cc1c(F)ccc2cc(O)cc(-c3ncc4c(N5CC6CCC(C5)N6)nc(OCC56CCCN5CC(F)C6)nc4c3F)c12, the IC50 was 0.195 µM under setting [1]; 0.189 µM under setting [2]; 0.165 µM under setting [3]; 0.141 µM under setting [4]; 0.0758 µM under setting [5]; 0.048 µM under setting [6]. The viability, T/C reads like this: (second compound 0.0316 µM, first compound 0.0316 µM) 92.2%; (second compound 0.0316 µM, first compound 0.1 µM) 73.8%; (second compound 0.0316 µM, first compound 0.316 µM) 32.1%; (second compound 0.0316 µM, first compound 1 µM) 17.4%; (second compound 0.0316 µM, first compound 3.16 µM) 11.8%; (second compound 0.0316 µM, first compound 10 µM) 9.37%. Also, the viability, T/C runs as follows: (second compound 0.1 µM, first compound 0.0316 µM) 97.8%; (second compound 0.1 µM, first compound 0.1 µM) 72.7%; (second compound 0.1 µM, first compound 0.316 µM) 31.3%; (second compound 0.1 µM, first compound 1 µM) 14%; (second compound 0.1 µM, first compound 3.16 µM) 9.92%; (second compound 0.1 µM, first compound 10 µM) 6.11%. In addition, the viability, T/C by setting is: (second compound 0.316 µM, first compound 0.0316 µM) 96.6%; (second compound 0.316 µM, first compound 0.1 µM) 70.2%; (second compound 0.316 µM, first compound 0.316 µM) 23.4%; (second compound 0.316 µM, first compound 1 µM) 10.3%; (second compound 0.316 µM, first compound 3.16 µM) 8.37%; (second compound 0.316 µM, first compound 10 µM) 6.2%. In addition, the viability, T/C (second compound 1 µM, first compound 0.0316 µM) was 91.2%; the viability, T/C (second compound 1 µM, first compound 0.1 µM) was 65.2%; the viability, T/C (second compound 1 µM, first compound 0.316 µM) was 14.2%; the viability, T/C (second compound 1 µM, first compound 1 µM) is 8.69%; the viability, T/C (second compound 1 µM, first compound 3.16 µM) is 6.98%; the viability, T/C (second compound 1 µM, first compound 10 µM) was 6.07%. Moreover, the viability, T/C (second compound 3.16 µM, first compound 0.0316 µM) is 78.2%; the viability, T/C (second compound 3.16 µM, first compound 0.1 µM) is 41.1%; the viability, T/C (second compound 3.16 µM, first compound 0.316 µM) is 10.8%; the viability, T/C (second compound 3.16 µM, first compound 1 µM) is 7.66%; the viability, T/C (second compound 3.16 µM, first compound 3.16 µM) was 5.66%; the viability, T/C (second compound 3.16 µM, first compound 10 µM) is 4.62%. Moreover, the viability, T/C was 63.9% (second compound 10 µM, first compound 0.0316 µM); 25.6% (second compound 10 µM, first compound 0.1 µM); 7.94% (second compound 10 µM, first compound 0.316 µM); 6.21% (second compound 10 µM, first compound 1 µM); 4.84% (second compound 10 µM, first compound 3.16 µM); 2.23% (second compound 10 µM, first compound 10 µM).

The record behind these values is PubChem BioAssay AID2060891 (Molecular Pharmacology Branch, DTP, NCI, 2025).
